Results as given in patent US12564583B2, “Small molecules against cereblon to enhance effector T cell function” (H. LEE MOFFITT CANCER CENTER AND RESEARCH INSTITUTE, INC., priority 2016, dated 2026).

Columns and labels:
IL-2 = IL-2 relative to DMSO; format: cell-based
[1] = Viability relative to DMSO; format: cell-based; parameters: concentration or dose not given beside the values
[2] = target: thalidomide binding domain (TBD) of cereblon (Homo sapiens, UniProt Q96SW2); assay: Cereblon binding (DSF, FP/FI); settings: at 200 μM
Protocol: Several libraries are available for screening inhibitors. Virtual analysis was formulated and then theoretical design of chemical test kit and virtual screen of test kit were carried out. Physical binding studies were also completed for the initial compounds using DSF and FP assays after they are fully tested. TEST KITs that represent the compounds identified from each of the available chemical libraries based on virtual chemical structures were also made.

Sequence of thalidomide binding domain (TBD) of cereblon (Q96SW2 318-426 limits assumed): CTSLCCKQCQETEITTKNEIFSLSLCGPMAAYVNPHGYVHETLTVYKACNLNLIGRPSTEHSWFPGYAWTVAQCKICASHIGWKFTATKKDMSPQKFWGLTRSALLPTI

Structure (SMILES)	IL-2 (%) (Relative to DMSO) (IL-2)	viability [1]	Cereblon Binding (≥50% inhibition at 200 μM) [2]
CC(=O)N[C@H](C(=O)NC1CCC(=O)NC1=O)C(C)C (stereo partly shown)	126.4%	79.4%	DSF (check) FI (borderline)
NC(=O)[C@H](Cc1ccccc1)NC(=O)[C@@H]1CCC(=O)N1	39.8%	74.7%	No
Nc1cccc2c1C(=O)N(C1CC(=O)NC1=O)C2=O (stereo not shown)	193.8%	97%	No
CN1C(=O)CCC(N2Cc3c(N)cccc3C2=O)C1=O.Cl (stereo not shown)	199.2%	106%	No
O=C1c2ccccc2C(=O)N1c1cc[nH]c(=O)c1	123.3%	95.3%	No
COc1ccc(C2=NNC(=O)CC2)cc1OC	12.4%	100%	No
O=C1CC[C@@H](C(=O)Nc2ccccc2)N1	0.5%	106%	No
O=C1CN(N2C(=O)c3cccc([N+](=O)[O-])c3C2=O)C(=O)N1	50.0%	96.4%	No
O=C1CC(N2C(=O)c3cccc([N+](=O)[O-])c3C2=O)C(=O)N1 (stereo not shown)	133.4%	81.9%	No
Nc1cccc2c1CN([C@H]1CC(=O)NC1=O)C2=O	124.9%		No
Nc1ccccc1S(=O)(=O)NC1CCC(=O)NC1=O (stereo not shown)	54.7%	99.1%	Yes*
CC(C)[C@H](NC(=O)c1ccccc1)C(=O)NC1CCC(=O)NC1=O (stereo partly shown)	84.5%	99.1%	Yes*
O=C1CCC(NS(=O)(=O)c2ccc([N+](=O)[O-])cc2)C(=O)N1 (stereo not shown)	56.3%	93.4%	Yes*
O=C1CCC(N2CCc3ccccc3C2)C(=O)N1 (stereo not shown)	105.4%	99.5%	Yes*
O=C1CCC(N2CCc3ccccc32)C(=O)N1 (stereo not shown)		98.7%	
O=C1CCC(N2Cc3ccccc3C2)C(=O)N1 (stereo not shown)	69.0%	84.8%	Yes*

Structure (SMILES)	IL-2 (%) (Relative to DMSO) (IL-2)	viability [1]	Cereblon Binding (≥50% inhibition at 200 μM) [2]
O=c1ccn(CCCc2ccccc2)c(=O)[nH]1	99.7%	93.1%	Yes*
O=c1ccn(Cc2ccccc2)c(=O)[nH]1	88.2%	79.5%	Yes*
O=c1ccn(CCNS(=O)(=O)c2ccccc2)c(=O)[nH]1	90.8%	77.8%	Yes*
O=c1ccn(CCCCc2ccccc2)c(=O)[nH]1	101.8%	86.4%	Yes*
O=c1ccn(CCCc2ccc(Cl)cc2)c(=O)[nH]1	93.9%	90.7%	Yes*
CNc1ccccc1C(=O)NCCn1cc(F)c(=O)[nH]c1=O	75.1%	79.2%	Yes*
Nc1ccccc1C(=O)NCCn1cc(F)c(=O)[nH]c1=O	109.0%	89.7%	Yes*
COc1ccc2c(c1)CCN(C1CCC(=O)NC1=O)C2 (stereo not shown)	79.0%	74.4%	Yes*
O=C1CCC(NS(=O)(=O)c2ccc3c(c2)OCCCO3)C(=O)N1 (stereo not shown)	61.6%	73.6%	Yes*
Nc1cc(Cl)ccc1C(=O)NCCn1ccc(=O)[nH]c1=O	67.3%	70.4%	Yes*
Nc1ccc(Cl)cc1C(=O)NCCn1ccc(=O)[nH]c1=O	51.2%	74.8%	Yes*
Cc1ccc(N)c(C(=O)NCCn2ccc(=O)[nH]c2=O)c1	83.7%	75.2%	Yes*
Nc1cccc(F)c1C(=O)NCCn1ccc(=O)[nH]c1=O	107.0%	95%	Yes*
O=C1CCC(N2CCc3ccc(Cl)cc3C2)C(=O)N1 (stereo not shown)	69.9%	93.2%	Yes*
Nc1ccc2c(c1)CCN(C1CCC(=O)NC1=O)C2 (stereo not shown)	54.6%	95.8%	Yes*
Nc1cccc2c1CN(C1CCC(=O)NC1=O)C2=O (stereo not shown) [drawing 75]		99.9%	
